Experimental findings from ChEMBL document CHEMBL5442219 are described below.

What all share (details): Compound concentration 10 µM
The target of test [1] is Sodium-dependent dopamine transporter (Homo sapiens) (UniProt Q01959).
Description: PDSP Primary Binding target: SLC6A3 - Compounds are tested at 10 uM concentration, plate are incubated at room temperature in the dark for 90 minutes. Reaction are stopped by vacuum filtration onto 0.3% polyethyleneimine soaked filter mats using Filtermate harvester. Scintilation cocktail is then melted onto microwave-dried filters on a hot plate and the radio activity is counted in Microbia counter.
In test [2] the target is 5-hydroxytryptamine receptor 2A (Homo sapiens) (UniProt P28223).
Description: PDSP Primary Binding target: HTR2A - Compounds are tested at 10 uM concentration, plate are incubated at room temperature in the dark for 90 minutes. Reaction are stopped by vacuum filtration onto 0.3% polyethyleneimine soaked filter mats using Filtermate harvester. Scintilation cocktail is then melted onto microwave-dried filters on a hot plate and the radio activity is counted in Microbia counter.
The target in test [3] is T1, Alpha-1A adrenergic receptor (Homo sapiens) (UniProt P35348).
T1 sequence (whole entry): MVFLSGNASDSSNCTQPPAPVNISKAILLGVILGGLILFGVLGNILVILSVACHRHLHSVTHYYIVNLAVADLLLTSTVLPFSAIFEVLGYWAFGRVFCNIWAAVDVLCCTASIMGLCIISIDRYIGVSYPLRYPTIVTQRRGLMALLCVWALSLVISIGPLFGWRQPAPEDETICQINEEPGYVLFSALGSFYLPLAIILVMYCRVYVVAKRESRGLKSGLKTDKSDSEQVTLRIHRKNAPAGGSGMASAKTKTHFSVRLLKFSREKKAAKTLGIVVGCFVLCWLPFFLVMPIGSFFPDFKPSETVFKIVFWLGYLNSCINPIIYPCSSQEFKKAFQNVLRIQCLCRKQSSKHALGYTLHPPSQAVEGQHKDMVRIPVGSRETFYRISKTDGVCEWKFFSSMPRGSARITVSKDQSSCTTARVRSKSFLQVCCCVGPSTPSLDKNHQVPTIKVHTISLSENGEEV
Description: PDSP Primary Binding target: ADRA1A - Compounds are tested at 10 uM concentration, plate are incubated at room temperature in the dark for 90 minutes. Reaction are stopped by vacuum filtration onto 0.3% polyethyleneimine soaked filter mats using Filtermate harvester. Scintilation cocktail is then melted onto microwave-dried filters on a hot plate and the radio activity is counted in Microbia counter.

Test [4] concerns the target Histamine H1 receptor (Homo sapiens) (UniProt P35367).
Description: PDSP Primary Binding target: HRH1 - Compounds are tested at 10 uM concentration, plate are incubated at room temperature in the dark for 90 minutes. Reaction are stopped by vacuum filtration onto 0.3% polyethyleneimine soaked filter mats using Filtermate harvester. Scintilation cocktail is then melted onto microwave-dried filters on a hot plate and the radio activity is counted in Microbia counter.
The target in test [5] is T2, 5-hydroxytryptamine receptor 1A (Homo sapiens) (UniProt P08908).
T2 sequence (whole entry): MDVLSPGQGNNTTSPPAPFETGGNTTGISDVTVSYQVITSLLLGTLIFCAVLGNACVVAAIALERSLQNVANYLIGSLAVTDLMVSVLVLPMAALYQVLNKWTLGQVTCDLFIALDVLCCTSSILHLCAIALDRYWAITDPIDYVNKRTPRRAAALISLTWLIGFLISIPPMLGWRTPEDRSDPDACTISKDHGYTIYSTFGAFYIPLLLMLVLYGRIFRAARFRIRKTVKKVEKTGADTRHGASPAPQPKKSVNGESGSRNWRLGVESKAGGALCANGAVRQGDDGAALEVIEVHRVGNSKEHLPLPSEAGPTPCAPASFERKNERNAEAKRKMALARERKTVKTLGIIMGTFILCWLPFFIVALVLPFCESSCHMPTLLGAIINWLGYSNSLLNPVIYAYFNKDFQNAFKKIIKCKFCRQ
Description: PDSP Primary Binding target: HTR1A - Compounds are tested at 10 uM concentration, plate are incubated at room temperature in the dark for 90 minutes. Reaction are stopped by vacuum filtration onto 0.3% polyethyleneimine soaked filter mats using Filtermate harvester. Scintilation cocktail is then melted onto microwave-dried filters on a hot plate and the radio activity is counted in Microbia counter.

The target of test [6] is T3, Muscarinic acetylcholine receptor M5 (Homo sapiens) (UniProt P08912).
T3 sequence (whole entry): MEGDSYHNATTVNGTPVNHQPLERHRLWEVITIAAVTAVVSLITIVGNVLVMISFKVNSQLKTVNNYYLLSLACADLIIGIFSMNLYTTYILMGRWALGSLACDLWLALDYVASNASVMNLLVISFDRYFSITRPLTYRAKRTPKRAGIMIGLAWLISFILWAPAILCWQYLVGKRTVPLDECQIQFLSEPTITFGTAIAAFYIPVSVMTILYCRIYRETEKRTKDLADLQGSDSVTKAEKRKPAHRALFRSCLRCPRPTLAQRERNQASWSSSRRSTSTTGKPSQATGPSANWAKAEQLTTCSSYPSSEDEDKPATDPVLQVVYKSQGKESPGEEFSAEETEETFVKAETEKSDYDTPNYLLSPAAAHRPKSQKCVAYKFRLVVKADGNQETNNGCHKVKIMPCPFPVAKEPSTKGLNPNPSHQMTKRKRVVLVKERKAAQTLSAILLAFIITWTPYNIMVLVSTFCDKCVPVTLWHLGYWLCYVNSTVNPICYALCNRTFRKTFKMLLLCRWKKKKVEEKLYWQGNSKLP
Description: PDSP Primary Binding target: CHRM5 - Compounds are tested at 10 uM concentration, plate are incubated at room temperature in the dark for 90 minutes. Reaction are stopped by vacuum filtration onto 0.3% polyethyleneimine soaked filter mats using Filtermate harvester. Scintilation cocktail is then melted onto microwave-dried filters on a hot plate and the radio activity is counted in Microbia counter.

The target in test [7] is Mu-type opioid receptor (Homo sapiens) (UniProt P35372).
Chain of Mu-type opioid receptor (Homo sapiens) (P35372 whole entry): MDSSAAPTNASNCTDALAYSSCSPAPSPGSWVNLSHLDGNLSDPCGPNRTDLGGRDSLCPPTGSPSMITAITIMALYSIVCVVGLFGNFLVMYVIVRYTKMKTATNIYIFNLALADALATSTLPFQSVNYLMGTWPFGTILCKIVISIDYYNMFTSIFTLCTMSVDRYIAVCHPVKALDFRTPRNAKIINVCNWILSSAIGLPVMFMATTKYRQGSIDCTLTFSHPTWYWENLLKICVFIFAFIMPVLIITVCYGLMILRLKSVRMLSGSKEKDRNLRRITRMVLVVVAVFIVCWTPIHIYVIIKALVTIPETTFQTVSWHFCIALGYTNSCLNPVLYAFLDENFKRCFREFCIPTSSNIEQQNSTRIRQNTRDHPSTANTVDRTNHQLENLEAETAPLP
Description: PDSP Primary Binding target: OPRM1 - Compounds are tested at 10 uM concentration, plate are incubated at room temperature in the dark for 90 minutes. Reaction are stopped by vacuum filtration onto 0.3% polyethyleneimine soaked filter mats using Filtermate harvester. Scintilation cocktail is then melted onto microwave-dried filters on a hot plate and the radio activity is counted in Microbia counter.
The target of test [8] is Histamine H3 receptor (Homo sapiens) (UniProt Q9Y5N1).
Chain of Histamine H3 receptor (Homo sapiens) (Q9Y5N1 whole entry): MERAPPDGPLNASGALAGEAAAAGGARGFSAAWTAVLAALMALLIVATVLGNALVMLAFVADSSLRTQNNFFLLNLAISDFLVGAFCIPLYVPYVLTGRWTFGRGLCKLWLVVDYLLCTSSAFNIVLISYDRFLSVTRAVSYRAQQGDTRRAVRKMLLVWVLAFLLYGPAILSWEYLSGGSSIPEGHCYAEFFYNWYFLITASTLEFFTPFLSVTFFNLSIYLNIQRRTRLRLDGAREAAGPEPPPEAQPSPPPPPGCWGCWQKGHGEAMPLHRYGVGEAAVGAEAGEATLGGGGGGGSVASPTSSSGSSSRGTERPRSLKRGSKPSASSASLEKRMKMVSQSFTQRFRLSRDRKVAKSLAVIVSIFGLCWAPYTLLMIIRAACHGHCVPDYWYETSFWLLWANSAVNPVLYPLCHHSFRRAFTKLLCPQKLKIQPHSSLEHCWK
Description: PDSP Primary Binding target: HRH3 - Compounds are tested at 10 uM concentration, plate are incubated at room temperature in the dark for 90 minutes. Reaction are stopped by vacuum filtration onto 0.3% polyethyleneimine soaked filter mats using Filtermate harvester. Scintilation cocktail is then melted onto microwave-dried filters on a hot plate and the radio activity is counted in Microbia counter.
Test [9] deals with 5-hydroxytryptamine receptor 5A (Homo sapiens) (UniProt P47898).
Chain of 5-hydroxytryptamine receptor 5A (Homo sapiens) (P47898 whole entry): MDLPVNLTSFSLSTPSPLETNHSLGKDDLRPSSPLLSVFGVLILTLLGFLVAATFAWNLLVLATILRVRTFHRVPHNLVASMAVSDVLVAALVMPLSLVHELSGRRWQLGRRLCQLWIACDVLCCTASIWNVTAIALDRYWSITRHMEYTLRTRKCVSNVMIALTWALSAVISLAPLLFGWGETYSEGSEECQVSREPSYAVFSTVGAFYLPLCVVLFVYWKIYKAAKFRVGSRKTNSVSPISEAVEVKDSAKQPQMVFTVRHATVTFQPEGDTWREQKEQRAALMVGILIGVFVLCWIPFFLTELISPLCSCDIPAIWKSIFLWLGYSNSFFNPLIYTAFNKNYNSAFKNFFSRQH
Description: PDSP Primary Binding target: HTR5A - Compounds are tested at 10 uM concentration, plate are incubated at room temperature in the dark for 90 minutes. Reaction are stopped by vacuum filtration onto 0.3% polyethyleneimine soaked filter mats using Filtermate harvester. Scintilation cocktail is then melted onto microwave-dried filters on a hot plate and the radio activity is counted in Microbia counter.
Test [10] concerns the target Beta-1 adrenergic receptor (Homo sapiens) (UniProt P08588).
Description: PDSP Primary Binding target: ADRB1 - Compounds are tested at 10 uM concentration, plate are incubated at room temperature in the dark for 90 minutes. Reaction are stopped by vacuum filtration onto 0.3% polyethyleneimine soaked filter mats using Filtermate harvester. Scintilation cocktail is then melted onto microwave-dried filters on a hot plate and the radio activity is counted in Microbia counter.
The target in test [11] is T4, Alpha-1D adrenergic receptor (Homo sapiens) (UniProt P25100).
T4 sequence (whole entry): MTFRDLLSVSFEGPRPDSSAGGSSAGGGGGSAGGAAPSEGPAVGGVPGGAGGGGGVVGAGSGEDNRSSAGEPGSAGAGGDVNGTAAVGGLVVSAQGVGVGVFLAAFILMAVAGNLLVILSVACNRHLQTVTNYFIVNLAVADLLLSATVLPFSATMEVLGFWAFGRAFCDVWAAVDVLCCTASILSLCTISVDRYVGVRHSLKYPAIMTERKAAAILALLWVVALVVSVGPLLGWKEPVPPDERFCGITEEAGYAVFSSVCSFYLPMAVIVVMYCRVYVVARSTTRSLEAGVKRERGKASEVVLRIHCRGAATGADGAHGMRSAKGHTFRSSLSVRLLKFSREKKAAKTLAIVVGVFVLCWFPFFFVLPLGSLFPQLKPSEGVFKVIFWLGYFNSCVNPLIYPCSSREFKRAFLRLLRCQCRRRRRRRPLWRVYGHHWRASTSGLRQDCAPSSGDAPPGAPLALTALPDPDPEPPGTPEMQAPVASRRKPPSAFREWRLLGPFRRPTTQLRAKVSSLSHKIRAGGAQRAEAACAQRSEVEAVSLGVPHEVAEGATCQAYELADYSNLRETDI
Description: PDSP Primary Binding target: ADRA1D - Compounds are tested at 10 uM concentration, plate are incubated at room temperature in the dark for 90 minutes. Reaction are stopped by vacuum filtration onto 0.3% polyethyleneimine soaked filter mats using Filtermate harvester. Scintilation cocktail is then melted onto microwave-dried filters on a hot plate and the radio activity is counted in Microbia counter.

In test [12] the target is 5-hydroxytryptamine receptor 1E (Homo sapiens) (UniProt P28566).
Chain of 5-hydroxytryptamine receptor 1E (Homo sapiens) (P28566 whole entry): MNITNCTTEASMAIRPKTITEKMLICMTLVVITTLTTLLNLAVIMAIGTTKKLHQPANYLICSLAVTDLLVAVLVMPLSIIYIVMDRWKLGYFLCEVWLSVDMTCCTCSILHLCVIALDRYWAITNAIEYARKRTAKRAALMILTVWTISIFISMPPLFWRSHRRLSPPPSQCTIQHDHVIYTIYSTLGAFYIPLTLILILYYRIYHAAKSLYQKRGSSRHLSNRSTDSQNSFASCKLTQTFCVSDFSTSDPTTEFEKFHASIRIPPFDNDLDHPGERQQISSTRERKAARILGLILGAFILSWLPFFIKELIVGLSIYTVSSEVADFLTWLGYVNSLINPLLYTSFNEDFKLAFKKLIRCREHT
Description: PDSP Primary Binding target: HTR1E - Compounds are tested at 10 uM concentration, plate are incubated at room temperature in the dark for 90 minutes. Reaction are stopped by vacuum filtration onto 0.3% polyethyleneimine soaked filter mats using Filtermate harvester. Scintilation cocktail is then melted onto microwave-dried filters on a hot plate and the radio activity is counted in Microbia counter.
Test [13] addresses 5-hydroxytryptamine receptor 1D (Homo sapiens) (UniProt P28221).
Description: PDSP Primary Binding target: HTR1D - Compounds are tested at 10 uM concentration, plate are incubated at room temperature in the dark for 90 minutes. Reaction are stopped by vacuum filtration onto 0.3% polyethyleneimine soaked filter mats using Filtermate harvester. Scintilation cocktail is then melted onto microwave-dried filters on a hot plate and the radio activity is counted in Microbia counter.
For test [14], the target named is Sodium-dependent serotonin transporter (Homo sapiens) (UniProt P31645).
Chain of Sodium-dependent serotonin transporter (Homo sapiens) (P31645 whole entry, looked up): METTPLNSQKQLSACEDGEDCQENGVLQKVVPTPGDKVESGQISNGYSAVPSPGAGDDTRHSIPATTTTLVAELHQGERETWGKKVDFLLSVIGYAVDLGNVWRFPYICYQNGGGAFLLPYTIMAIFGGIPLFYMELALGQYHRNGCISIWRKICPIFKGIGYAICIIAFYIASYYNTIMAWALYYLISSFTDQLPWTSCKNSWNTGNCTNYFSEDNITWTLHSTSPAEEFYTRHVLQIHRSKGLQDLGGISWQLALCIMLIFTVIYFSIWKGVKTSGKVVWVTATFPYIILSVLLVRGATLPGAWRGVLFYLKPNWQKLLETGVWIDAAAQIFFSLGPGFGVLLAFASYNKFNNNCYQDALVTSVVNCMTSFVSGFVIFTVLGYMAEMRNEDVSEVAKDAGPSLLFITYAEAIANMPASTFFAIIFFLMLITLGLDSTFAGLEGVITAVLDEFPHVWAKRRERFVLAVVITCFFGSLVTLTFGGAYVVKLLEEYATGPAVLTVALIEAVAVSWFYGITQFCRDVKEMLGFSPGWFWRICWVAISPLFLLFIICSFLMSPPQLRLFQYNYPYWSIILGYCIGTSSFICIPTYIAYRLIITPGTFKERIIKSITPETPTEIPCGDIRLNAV
Description: PDSP Primary Binding target: SLC6A4 - Compounds are tested at 10 uM concentration, plate are incubated at room temperature in the dark for 90 minutes. Reaction are stopped by vacuum filtration onto 0.3% polyethyleneimine soaked filter mats using Filtermate harvester. Scintilation cocktail is then melted onto microwave-dried filters on a hot plate and the radio activity is counted in Microbia counter.
In test [15] the target is 5-hydroxytryptamine receptor 1B (Homo sapiens) (UniProt P28222).
Chain of 5-hydroxytryptamine receptor 1B (Homo sapiens) (P28222 whole entry): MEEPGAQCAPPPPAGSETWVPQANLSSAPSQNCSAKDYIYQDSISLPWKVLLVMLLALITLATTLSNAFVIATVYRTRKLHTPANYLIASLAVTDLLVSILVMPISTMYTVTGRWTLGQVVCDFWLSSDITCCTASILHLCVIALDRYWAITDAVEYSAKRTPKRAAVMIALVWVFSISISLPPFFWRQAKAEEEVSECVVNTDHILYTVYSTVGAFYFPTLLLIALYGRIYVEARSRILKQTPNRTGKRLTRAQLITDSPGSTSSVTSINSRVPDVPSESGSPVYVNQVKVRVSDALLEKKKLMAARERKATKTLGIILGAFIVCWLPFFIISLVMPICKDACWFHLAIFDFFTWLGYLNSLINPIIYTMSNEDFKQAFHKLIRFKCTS
Description: PDSP Primary Binding target: HTR1B - Compounds are tested at 10 uM concentration, plate are incubated at room temperature in the dark for 90 minutes. Reaction are stopped by vacuum filtration onto 0.3% polyethyleneimine soaked filter mats using Filtermate harvester. Scintilation cocktail is then melted onto microwave-dried filters on a hot plate and the radio activity is counted in Microbia counter.

Chain of Histamine H1 receptor (Homo sapiens) (P35367 whole entry): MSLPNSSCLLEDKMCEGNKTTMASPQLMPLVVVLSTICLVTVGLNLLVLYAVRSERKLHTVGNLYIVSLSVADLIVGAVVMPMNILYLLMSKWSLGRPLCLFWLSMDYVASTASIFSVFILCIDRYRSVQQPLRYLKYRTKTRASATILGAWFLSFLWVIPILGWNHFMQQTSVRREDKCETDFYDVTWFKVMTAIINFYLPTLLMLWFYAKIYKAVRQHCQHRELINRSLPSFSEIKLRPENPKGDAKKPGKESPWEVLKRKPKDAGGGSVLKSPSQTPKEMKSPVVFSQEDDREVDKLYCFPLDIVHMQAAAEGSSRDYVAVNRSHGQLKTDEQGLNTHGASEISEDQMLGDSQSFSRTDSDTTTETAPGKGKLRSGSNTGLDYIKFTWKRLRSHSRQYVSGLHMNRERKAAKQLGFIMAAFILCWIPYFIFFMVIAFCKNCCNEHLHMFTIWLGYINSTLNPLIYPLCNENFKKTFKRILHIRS
Chain of 5-hydroxytryptamine receptor 1D (Homo sapiens) (P28221 whole entry): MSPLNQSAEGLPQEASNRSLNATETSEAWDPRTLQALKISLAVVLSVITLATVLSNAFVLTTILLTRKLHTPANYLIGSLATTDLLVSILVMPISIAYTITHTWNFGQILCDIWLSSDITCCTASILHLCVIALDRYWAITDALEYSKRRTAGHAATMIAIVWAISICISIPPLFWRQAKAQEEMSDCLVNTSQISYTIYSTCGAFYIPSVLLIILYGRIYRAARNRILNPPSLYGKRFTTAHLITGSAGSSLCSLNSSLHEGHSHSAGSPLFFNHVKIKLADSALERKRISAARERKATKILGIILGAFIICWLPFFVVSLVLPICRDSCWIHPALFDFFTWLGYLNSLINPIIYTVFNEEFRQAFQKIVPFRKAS
Chain of Sodium-dependent dopamine transporter (Homo sapiens) (Q01959 whole entry): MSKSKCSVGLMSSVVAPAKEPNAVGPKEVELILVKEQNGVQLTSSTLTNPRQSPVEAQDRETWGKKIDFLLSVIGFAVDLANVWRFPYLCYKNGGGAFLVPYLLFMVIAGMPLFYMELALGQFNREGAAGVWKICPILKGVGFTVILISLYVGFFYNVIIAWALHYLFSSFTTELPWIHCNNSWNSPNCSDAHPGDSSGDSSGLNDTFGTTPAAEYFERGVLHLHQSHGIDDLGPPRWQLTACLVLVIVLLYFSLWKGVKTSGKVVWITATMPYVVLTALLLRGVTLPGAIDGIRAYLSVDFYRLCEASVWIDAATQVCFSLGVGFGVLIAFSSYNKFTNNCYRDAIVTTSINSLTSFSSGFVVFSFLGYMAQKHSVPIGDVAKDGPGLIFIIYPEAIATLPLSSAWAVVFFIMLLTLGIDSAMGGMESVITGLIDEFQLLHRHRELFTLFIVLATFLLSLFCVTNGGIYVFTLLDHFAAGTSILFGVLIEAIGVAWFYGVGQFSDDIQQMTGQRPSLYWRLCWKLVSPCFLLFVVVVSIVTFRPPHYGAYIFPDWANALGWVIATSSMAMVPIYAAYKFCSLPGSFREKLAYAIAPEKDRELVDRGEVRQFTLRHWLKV
Chain of Beta-1 adrenergic receptor (Homo sapiens) (P08588 whole entry, looked up): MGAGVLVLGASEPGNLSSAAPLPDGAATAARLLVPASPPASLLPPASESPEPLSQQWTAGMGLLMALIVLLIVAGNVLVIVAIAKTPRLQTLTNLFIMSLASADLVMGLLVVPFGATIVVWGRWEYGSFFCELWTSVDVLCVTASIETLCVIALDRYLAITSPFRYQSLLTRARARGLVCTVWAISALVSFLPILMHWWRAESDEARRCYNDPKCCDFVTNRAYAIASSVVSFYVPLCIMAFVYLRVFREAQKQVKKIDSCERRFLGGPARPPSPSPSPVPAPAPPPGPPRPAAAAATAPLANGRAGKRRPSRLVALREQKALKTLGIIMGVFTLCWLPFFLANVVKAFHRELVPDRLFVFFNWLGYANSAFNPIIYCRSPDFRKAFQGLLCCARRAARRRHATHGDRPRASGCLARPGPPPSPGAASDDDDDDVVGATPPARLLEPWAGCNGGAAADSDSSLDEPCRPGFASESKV

Turning to `CN1C(=O)[C@@H](NC(=O)c2cc3ccccc3[nH]2)N=C(c2ccccc2)c2ccccc21`, the inhibition (usually the drop in the measured response relative to a control, in per cent) was 42.1% in test [1]; 19.7% in test [2]; 2.69% in [3]; -6.55% in test [4]; -1.26% in test [5]; -5.02% in test [6]. For the same compound, the inhibition was 5.76% in test [7]; 5.34% in test [8]; -2.34% in [9]; 13.8% in test [10]; -0.46% in [11]; -6.92% in test [12]. Also, the values for the inhibition in test [13], in [14] and in [15] were 23.2%, -8.05% and 27.2%, respectively.

For `Cc1nc(-c2ccc(-c3ccc(C(=O)N4CCc5cc6c(cc54)C4(CCN(C)CC4)CO6)cc3)c(C)c2)no1`, the inhibition is 70.2% in test [1]; 67.6% in [2]; 27.9% in test [3]; 33.8% in test [4]; 9.17% in test [5]; 93.6% in test [6]. Further, the inhibition in test [7] was -2.77%; in test [8], 35.6%; in test [9], 14%; in [10], -1.95%; in test [11], 66.3%; in test [12], 0.78%. For the same compound, the inhibition in [13] is 90.9%; in [14], 41%; in test [15], 95.1%.

On to `N#Cc1ccc2[nH]cc(CCCCN3CCN(c4ccc5oc(C(N)=O)cc5c4)CC3)c2c1`, for which the inhibition is 99.5% in test [1]; 43% in [2]; 95.5% in [3]; 85.8% in test [4]; 102% in [5]; 30.6% in test [6]. Also, the inhibition in [7] was 62.7%; in [8], 31.9%; in test [9], 40.6%; in [10], 11.6%; in test [11], 75.5%; in test [12], 21.2%. Also, the inhibition is 80% in [13], 96% in [14] and 56.1% in test [15].

For `CCCCN1CCC(COC(=O)c2cc(Cl)c(N)c3c2OCCO3)CC1`, the inhibition in test [1] was 19.5%; in test [2], 62.2%; in [3], 52.9%; in [4] it was 55.4%; in test [5], -1.01%; in test [6] it was -7.37%. The inhibition is 9.58% in test [7]; 32.8% in [8]; -0.67% in [9]; 10.7% in [10]; 24.6% in [11]; 22.6% in test [12]. Further, the figures for the inhibition in test [13], in [14] and in test [15] were 54.6%, 14.6% and 35.3%, respectively.

As to `NC[C@@H]1O[C@H](C23CC4CC(CC(C4)C2)C3)Cc2c1ccc(O)c2O`, the inhibition is 68.4% in test [1]; 3.87% in test [2]; -1.53% in test [3]; 38.4% in test [4]; 14.3% in [5]; 29.6% in [6]. Besides, the inhibition in test [8] is 24.8%; in test [9], 20.1%; in [10], -6.91%; in test [11], 3.98%; in test [12], 22.3%; in [13] it was 43.5%. For the same compound, the results for the inhibition in test [14] and in test [15] were 28.7% and 22.6%, respectively.

In the case of `OC1(c2ccc(Cl)cc2)CCN(Cc2c[nH]c3ccccc23)CC1`, the inhibition is 80% in test [1]; 66.9% in test [2]; 66.1% in test [3]; 38.8% in [4]; 2% in test [5]; 70.8% in test [6]. The inhibition was 65% in [7]; 37.7% in [9]; 38.7% in [10]; 21.4% in test [11]; 46.1% in test [13]; 102% in test [14]. For the same compound, the inhibition in test [15] is 19.3%.

In the case of `O=C(Cc1ccc(Cl)c(Cl)c1)N1CCCC[C@H]1CN1CCCC1`, the inhibition was 52.7% in test [1]; 6.03% in test [2]; 31.2% in [3]; 23.8% in test [4]; -1.23% in test [5]; 49.6% in test [7]. The inhibition in test [8] is 37.3%; in test [10], -3.57%; in test [11] it was 12.3%; in [12], 1.08%; in [13] it was 14.8%; in test [14] it was 33.9%. Besides, the inhibition in [15] was 10.4%.

For `COc1cccc([C@H](O)C2CCN(CCc3ccc(F)cc3)CC2)c1OC`, the inhibition in [1] was 15.6%; in test [3] it was 31.6%; in test [4] it was 92.9%; in test [5], 3.32%; in test [6], -8.31%; in test [7] it was 8.06%. Besides, the inhibition in test [8] was 3.17%; in test [9], 16.8%; in test [10] it was 32.2%; in test [11] it was 34.5%; in test [12] it was -0.41%; in test [13] it was 73.8%. The inhibition in test [14] was 27.2%; in test [15] it was 27.7%.

With `Cc1cccc([C@H](C)c2c[nH]cn2)c1C`, the inhibition in [1] was 39.2%; in test [2], 26.8%; in test [3] it was 63%; in test [5] it was -0.33%; in [6], 3.92%; in test [8], 2.75%. In addition, the inhibition was -0.76% in test [9]; 3.18% in test [10]; 42.8% in test [11]; -0.76% in test [12]; 145% in test [13]; -4.26% in test [14]. Moreover, the inhibition in test [15] was 31.3%.
